In test [1] the test system is Staphylococcus aureus. Kind of test: Antibacterial activity against Staphylococcus aureus IFO 3060 assessed as growth inhibition at 200 ug/disc after 24 hrs by agar disc-diffusion method. The format is functional. The note with it: IFO 3060, 24 h, read-out: DIZ. In general terms: A growth-free zone around the sample is the usual read-out of agar diffusion tests.
A further test deals with Candida albicans. The test is described as follows: Antifungal activity against Candida albicans IFO 0583 assessed as growth inhibition at 200 ug/disc after 48 hrs by agar disc-diffusion method. The format is functional. The note with it: IFO 0583, 48 h, read-out: DIZ.
The subject of test [2] is Bacillus subtilis. The test is described as follows: Antibacterial activity against Bacillus subtilis IFO 3007 after 24 hrs by two fold dilution method. The test is classed as functional. The note with it: IFO 3007, 24 h.
The test system of test [3] is Escherichia coli. The test is described as follows: Antibacterial activity against Escherichia coli IFO 3301 assessed as growth inhibition at 200 ug/disc after 24 hrs by agar disc-diffusion method. The format is functional. The note with it: IFO 3301, 24 h, read-out: DIZ.
For a further test, the system named is Pseudomonas aeruginosa. Kind of test: Antibacterial activity against Pseudomonas aeruginosa IFO 3448 assessed as growth inhibition at 200 ug/disc after 24 hrs by agar disc-diffusion method. The test is classed as functional. The note with it: IFO 3448, 24 h, read-out: DIZ.
Test [4] deals with Bacillus subtilis. The test is described as follows: Antibacterial activity against Bacillus subtilis IFO 3007 assessed as growth inhibition at 200 ug/disc after 24 hrs by agar disc-diffusion method. The format is functional. The note with it: IFO 3007, 24 h, read-out: DIZ.
The subject of test [5] is Micrococcus luteus. Kind of test: Antibacterial activity against Micrococcus luteus IFO 3232 assessed as growth inhibition at 200 ug/disc after 24 hrs by agar disc-diffusion method. The format is functional. The note with it: IFO 3232, 24 h, read-out: DIZ.
Test [6] has as its system Escherichia coli. Kind of test: microbe, parasite or virus in culture. The settings on record: IFO 3301, 24 h.
Description: Antibacterial activity against Escherichia coli IFO 3301 after 24 hrs by two fold dilution method
In test [7] the test system is Micrococcus luteus. The test is described as follows: Antibacterial activity against Micrococcus luteus IFO 3232 after 24 hrs by two fold dilution method. The test is classed as functional. The settings on record: IFO 3232, 24 h.
For test [8], the system named is Staphylococcus aureus. Kind of test: Antibacterial activity against Staphylococcus aureus IFO 3060 after 24 hrs by two fold dilution method. The settings on record: IFO 3060, 24 h. The format is functional.

Consider 20 compounds from ChEMBL document CHEMBL2424616, “Synthesis and antimicrobial activity of novel 5-(1-adamantyl)-2-aminomethyl-4-substituted-1,2,4-triazoline-3-thiones” (2013).

Values after ≈ are worked out from the molar mass of the structure shown. A value given as a limit tells only on which side of the number the result lay.

Take `FC(F)(F)c1ccccc1NCn1nc(C23CC4CC(CC(C4)C2)C3)n(-c2ccc(Cl)cc2)c1=S`: the zone of inhibition at 200 µg/disc is 17 mm in the test on Staphylococcus aureus [1]; below 10 mm in the test on Candida albicans; 12 mm in the test with Escherichia coli [3]; 11 mm in the test with Pseudomonas aeruginosa; 19 mm in the test on Bacillus subtilis [4]; 14 mm in the test with Micrococcus luteus [5]. Moreover, in the test on Bacillus subtilis [2], the MIC stood at 16 µg/mL (≈ 30.8 µM).

Regarding `CCN1CCN(Cn2nc(C34CC5CC(CC(C5)C3)C4)n(-c3ccc(Cl)cc3)c2=S)CC1`, the zone of inhibition at 200 µg/disc is 14 mm in the test on Staphylococcus aureus [1]; below 10 mm with Candida albicans; below 10 mm in the test on Escherichia coli [3]; below 10 mm with Pseudomonas aeruginosa; 18 mm in the test on Bacillus subtilis [4]; 15 mm in the test with Micrococcus luteus [5]. In addition, in the test with Bacillus subtilis [2], the MIC is 8 µg/mL (≈ 16.9 µM).

Turning to `COc1ccccc1N1CCN(Cn2nc(C34CC5CC(CC(C5)C3)C4)n(/N=C/c3ccccc3O)c2=S)CC1`, the zone of inhibition at 200 µg/disc in the test on Staphylococcus aureus [1] is 28 mm; in the test with Candida albicans it was below 10 mm; in the test on Escherichia coli [3], 18 mm; in the test on Pseudomonas aeruginosa, 12 mm; with Bacillus subtilis [4] it was 33 mm; with Micrococcus luteus [5] it was 25 mm. For the same compound, the MIC in the test with Bacillus subtilis [2] is 0.5 µg/mL (≈ 0.895 µM); against Escherichia coli [6], 8 µg/mL (≈ 14.3 µM); against Micrococcus luteus [7], 2 µg/mL (≈ 3.58 µM); in the test on Staphylococcus aureus [8] it was 0.5 µg/mL (≈ 0.895 µM).

`COc1ccccc1N1CCN(Cn2nc(C34CC5CC(CC(C5)C3)C4)n(/N=C/c3ccc(O)cc3)c2=S)CC1`: the zone of inhibition at 200 µg/disc in the test on Staphylococcus aureus [1] was 30 mm; in the test on Candida albicans, below 10 mm; in the test with Escherichia coli [3] it was 16 mm; with Pseudomonas aeruginosa it was 14 mm; with Bacillus subtilis [4] it was 29 mm; in the test on Micrococcus luteus [5], 18 mm. Besides, the MIC against Bacillus subtilis [2] worked out at 1 µg/mL (≈ 1.79 µM); in the test on Micrococcus luteus [7], 16 µg/mL (≈ 28.6 µM); in the test with Staphylococcus aureus [8], 1 µg/mL (≈ 1.79 µM).

As for `Oc1ccccc1/C=N/n1c(C23CC4CC(CC(C4)C2)C3)nn(CN2CCN(Cc3ccccc3)CC2)c1=S`, the zone of inhibition at 200 µg/disc was 19 mm in the test on Staphylococcus aureus [1]; below 10 mm with Candida albicans; 11 mm with Escherichia coli [3]; 11 mm in the test on Pseudomonas aeruginosa; 21 mm in the test on Bacillus subtilis [4]; 17 mm in the test with Micrococcus luteus [5]. The MIC in the test with Bacillus subtilis [2] and against Staphylococcus aureus [8] was 2 µg/mL (≈ 3.68 µM) each time.

For the compound `COc1ccccc1N1CCN(Cn2nc(C34CC5CC(CC(C5)C3)C4)n(-c3ccc(Cl)cc3)c2=S)CC1`, the zone of inhibition at 200 µg/disc with Staphylococcus aureus [1] was 18 mm; in the test with Candida albicans, below 10 mm; in the test with Escherichia coli [3], below 10 mm; with Pseudomonas aeruginosa, below 10 mm; in the test with Bacillus subtilis [4], 18 mm; in the test on Micrococcus luteus [5], 16 mm. For the same compound, the MIC in the test with Bacillus subtilis [2] and in the test with Staphylococcus aureus [8] was 16 µg/mL (≈ 29.1 µM) each time.

Regarding `CCN1CCN(Cn2nc(C34CC5CC(CC(C5)C3)C4)n(/N=C/c3ccccc3O)c2=S)CC1`, the zone of inhibition at 200 µg/disc in the test with Staphylococcus aureus [1] was 26 mm; in the test with Candida albicans it was below 10 mm; in the test on Escherichia coli [3], 16 mm; with Pseudomonas aeruginosa, 11 mm; in the test with Bacillus subtilis [4], 30 mm; with Micrococcus luteus [5], 24 mm. The values for the MIC against Bacillus subtilis [2], in the test with Micrococcus luteus [7] and against Staphylococcus aureus [8] were 0.5 µg/mL (≈ 1.04 µM), 2 µg/mL (≈ 4.16 µM) and 1 µg/mL (≈ 2.08 µM), respectively.

With `Cn1c(C23CC4CC(CC(C4)C2)C3)nn(CNc2ccc(Br)cc2)c1=S`, the zone of inhibition at 200 µg/disc in the test on Staphylococcus aureus [1], with Candida albicans, in the test with Escherichia coli [3], in the test with Pseudomonas aeruginosa, in the test with Bacillus subtilis [4] and in the test on Micrococcus luteus [5] was below 10 mm each time.

With `CCN1CCN(Cn2nc(C34CC5CC(CC(C5)C3)C4)n(/N=C/c3ccc(O)cc3)c2=S)CC1`, the zone of inhibition at 200 µg/disc was 30 mm in the test on Staphylococcus aureus [1]; below 10 mm with Candida albicans; 17 mm in the test with Escherichia coli [3]; 13 mm in the test on Pseudomonas aeruginosa; 29 mm in the test on Bacillus subtilis [4]; 25 mm in the test with Micrococcus luteus [5]. For the same compound, the MIC against Bacillus subtilis [2] stood at 1 µg/mL (≈ 2.08 µM); in the test with Micrococcus luteus [7] it was 2 µg/mL (≈ 4.16 µM); with Staphylococcus aureus [8], 1 µg/mL (≈ 2.08 µM).

Regarding `Oc1ccccc1/C=N/n1c(C23CC4CC(CC(C4)C2)C3)nn(CN2CCN(c3ccccc3)CC2)c1=S`, the zone of inhibition at 200 µg/disc is 22 mm in the test on Staphylococcus aureus [1]; below 10 mm in the test on Candida albicans; 14 mm in the test with Escherichia coli [3]; 12 mm with Pseudomonas aeruginosa; 25 mm with Bacillus subtilis [4]; 18 mm in the test on Micrococcus luteus [5]. In addition, the MIC is 4 µg/mL (≈ 7.57 µM) in the test with Bacillus subtilis [2], 16 µg/mL (≈ 30.3 µM) against Micrococcus luteus [7] and 8 µg/mL (≈ 15.1 µM) in the test with Staphylococcus aureus [8].

Turning to `S=c1n(CN2CCN(c3ccccc3)CC2)nc(C23CC4CC(CC(C4)C2)C3)n1-c1ccc(Cl)cc1`, the zone of inhibition at 200 µg/disc was 16 mm in the test with Staphylococcus aureus [1]; below 10 mm with Candida albicans; below 10 mm with Escherichia coli [3]; below 10 mm with Pseudomonas aeruginosa; 17 mm in the test on Bacillus subtilis [4]; 14 mm in the test on Micrococcus luteus [5].

As for `COc1ccccc1N1CCN(Cn2nc(C34CC5CC(CC(C5)C3)C4)n(C)c2=S)CC1`, the zone of inhibition at 200 µg/disc with Staphylococcus aureus [1] is 22 mm; in the test on Candida albicans, below 10 mm; in the test with Escherichia coli [3], 11 mm; with Pseudomonas aeruginosa, below 10 mm; in the test with Bacillus subtilis [4], 20 mm; with Micrococcus luteus [5] it was 19 mm. Moreover, the MIC was 4 µg/mL (≈ 8.82 µM) against Bacillus subtilis [2], 16 µg/mL (≈ 35.3 µM) with Micrococcus luteus [7] and 4 µg/mL (≈ 8.82 µM) with Staphylococcus aureus [8].

For the compound `Fc1cccc(F)c1NCn1nc(C23CC4CC(CC(C4)C2)C3)n(-c2ccc(Cl)cc2)c1=S`, the zone of inhibition at 200 µg/disc in the test with Staphylococcus aureus [1] was determined as 18 mm; in the test on Candida albicans it was 13 mm; in the test with Escherichia coli [3], 14 mm; in the test on Pseudomonas aeruginosa it was 11 mm; in the test with Bacillus subtilis [4] it was 20 mm; with Micrococcus luteus [5] it was 17 mm. In the test with Bacillus subtilis [2], this compound had an MIC of 8 µg/mL (≈ 16.4 µM).

For `CCOC(=O)N1CCN(Cn2nc(C34CC5CC(CC(C5)C3)C4)n(/N=C/c3ccccc3O)c2=S)CC1`, the zone of inhibition at 200 µg/disc in the test on Staphylococcus aureus [1] was 18 mm; in the test with Candida albicans, below 10 mm; in the test on Escherichia coli [3], below 10 mm; with Pseudomonas aeruginosa, below 10 mm; in the test on Bacillus subtilis [4] it was 19 mm; in the test on Micrococcus luteus [5] it was 16 mm. In addition, the MIC with Bacillus subtilis [2] and against Staphylococcus aureus [8] was 4 µg/mL (≈ 7.62 µM) throughout.

For the compound `S=c1n(CNc2ccccc2Cl)nc(C23CC4CC(CC(C4)C2)C3)n1-c1ccc(Cl)cc1`, the zone of inhibition at 200 µg/disc in the test with Staphylococcus aureus [1] is 16 mm; in the test with Candida albicans it was below 10 mm; with Escherichia coli [3] it was below 10 mm; in the test with Pseudomonas aeruginosa it was below 10 mm; in the test with Bacillus subtilis [4], 11 mm; with Micrococcus luteus [5], below 10 mm.

As for `S=c1n(CNc2ccccc2)nc(C23CC4CC(CC(C4)C2)C3)n1-c1ccc(Cl)cc1`, the zone of inhibition at 200 µg/disc in the test with Staphylococcus aureus [1], with Candida albicans, in the test with Escherichia coli [3], in the test with Pseudomonas aeruginosa, in the test with Bacillus subtilis [4] and with Micrococcus luteus [5] was below 10 mm each time.

For the compound `FC(F)(F)c1ccc(NCn2nc(C34CC5CC(CC(C5)C3)C4)n(-c3ccc(Cl)cc3)c2=S)cc1`, the zone of inhibition at 200 µg/disc in the test with Staphylococcus aureus [1] was 16 mm; in the test on Candida albicans, below 10 mm; in the test with Escherichia coli [3], 14 mm; with Pseudomonas aeruginosa it was 11 mm; with Bacillus subtilis [4], 22 mm; in the test with Micrococcus luteus [5] it was 18 mm. The MIC in the test on Bacillus subtilis [2] came out at 8 µg/mL (≈ 15.4 µM); in the test on Micrococcus luteus [7] it was 16 µg/mL (≈ 30.8 µM).

`CCOC(=O)N1CCN(Cn2nc(C34CC5CC(CC(C5)C3)C4)n(/N=C/c3ccc(O)cc3)c2=S)CC1`: the zone of inhibition at 200 µg/disc in the test with Staphylococcus aureus [1] was 17 mm; with Candida albicans, below 10 mm; in the test on Escherichia coli [3], below 10 mm; in the test on Pseudomonas aeruginosa, below 10 mm; in the test with Bacillus subtilis [4], 16 mm; in the test with Micrococcus luteus [5] it was 14 mm.

`Cn1c(C23CC4CC(CC(C4)C2)C3)nn(CN2CCN(c3ccccc3)CC2)c1=S`: the zone of inhibition at 200 µg/disc was 19 mm in the test with Staphylococcus aureus [1]; below 10 mm in the test with Candida albicans; below 10 mm in the test with Escherichia coli [3]; below 10 mm in the test with Pseudomonas aeruginosa; 18 mm in the test on Bacillus subtilis [4]; 14 mm in the test on Micrococcus luteus [5]. The MIC came to 16 µg/mL (≈ 37.8 µM) against Bacillus subtilis [2] and 8 µg/mL (≈ 18.9 µM) in the test on Staphylococcus aureus [8].

Consider `Oc1ccc(/C=N/n2c(C34CC5CC(CC(C5)C3)C4)nn(CN3CCN(c4ccccc4)CC3)c2=S)cc1`, for which the zone of inhibition at 200 µg/disc in the test with Staphylococcus aureus [1] is 22 mm; in the test with Candida albicans it was below 10 mm; in the test on Escherichia coli [3], 16 mm; in the test on Pseudomonas aeruginosa it was below 10 mm; with Bacillus subtilis [4], 22 mm; in the test with Micrococcus luteus [5], 19 mm. Besides, the MIC came to 4 µg/mL (≈ 7.57 µM) against Bacillus subtilis [2], 16 µg/mL (≈ 30.3 µM) with Micrococcus luteus [7] and 4 µg/mL (≈ 7.57 µM) against Staphylococcus aureus [8].
